The target of this assay is T1, Membrane-associated tyrosine- and threonine-specific cdc2-inhibitory kinase (Homo sapiens, UniProt Q99640).
T1 sequence (Q99640 whole entry): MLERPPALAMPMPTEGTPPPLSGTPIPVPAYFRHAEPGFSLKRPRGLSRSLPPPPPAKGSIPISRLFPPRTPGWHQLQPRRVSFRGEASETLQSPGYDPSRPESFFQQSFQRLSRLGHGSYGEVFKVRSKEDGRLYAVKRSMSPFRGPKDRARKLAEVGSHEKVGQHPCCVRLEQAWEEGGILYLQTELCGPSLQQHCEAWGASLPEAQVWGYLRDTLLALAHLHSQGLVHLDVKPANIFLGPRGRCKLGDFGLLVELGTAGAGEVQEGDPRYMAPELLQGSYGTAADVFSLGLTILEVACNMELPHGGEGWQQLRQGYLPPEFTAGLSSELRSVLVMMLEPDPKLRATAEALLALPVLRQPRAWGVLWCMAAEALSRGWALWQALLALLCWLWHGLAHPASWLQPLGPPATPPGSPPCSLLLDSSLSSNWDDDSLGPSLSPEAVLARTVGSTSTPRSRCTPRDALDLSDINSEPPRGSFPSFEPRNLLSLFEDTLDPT
Description: PKMYT1 HTRF Assay. The protocol:
Compound serial dilution is performed by Echo, and the final concentrations vary from 10 μM to 0.5 nM. This was filled by the addition of 5 μL/well of Enzyme solution to the assay plate containing the compound. The plate was centrifuged at 1000 rpm for 1 minute, and incubate 15 minutes at 25 […]. Then 5 μL/well of tracer solution (Tracer 178) was added to initiate the reaction, and incubate for 60 minutes at 25° C. Next 5 μL GST-Tb was added into the assay plate, the plate was centrifuged at 1000 rpm for 1 minute, and incubate for 15 minutes at 25 […]. The assay plate was read on Envision.
Compound `Cc1ncc(-c2cc3c(Cl)c(-c4c(C)ccc(O)c4C)cnc3[nH]2)cn1` [US20250136596, Example 23] returned an IC50 below 10 nM.

In turn, `Cc1ncc(-c2[nH]c3ncc(-c4c(C)ccc(O)c4C)c(C#N)c3c2F)cn1` [US20250136596, Example 35] showed an IC50 below 10 nM.

Compound `CNc1ncc(-c2cc3c(C#N)c(-c4c(C)ccc(O)c4C)cnc3[nH]2)cn1` [US20250136596, Example 41] registered an IC50 below 10 nM.

In the case of `COc1ncc(-c2cc3c(C#N)c(-c4c(C)ccc(O)c4C)cnc3[nH]2)cn1` [US20250136596, Example 51], the IC50 was below 10 nM.

For `Cc1ccc(O)c(C)c1-c1cnc2[nH]c(-c3cncc(C#N)c3)cc2c1C#N` [US20250136596, Example 61], the IC50 was below 10 nM.

Regarding `Cc1ccc(O)c(C)c1-c1cnc2[nH]c(-c3cnc(N)c(C(F)(F)F)c3)cc2c1C#N` [US20250136596, Example 62], the IC50 was below 10 nM.

`Cc1ccc(O)c(C)c1-c1cnc2[nH]c(-c3cnc(S(C)(=O)=O)nc3)cc2c1C#N` [US20250136596, Example 95] came in with an IC50 below 10 nM.

`Cc1ncc(-c2[nH]c3ncc(-c4c(C)ccc(O)c4C)c(C#N)c3c2C)cn1` [US20250136596, Example 107]: the IC50 was below 10 nM.

Take `Cc1ccc(O)c(C)c1-c1cnc2[nH]c(-c3cnc4cn[nH]c4c3)cc2c1C#N` [US20250136596, Example 124]: the IC50 was below 10 nM.

For orientation: IC50 means the concentration that inhibits the measured activity by half. The low end stands for greater potency, the high end for weaker potency.

These data come from BindingDB's records for patent US20250136596 (Insilico Medicine IP, 2025).
